{"source": "paper PMC11546786", "about": "“Designing Analogs of SAAP-148 with Enhanced Antimicrobial and Anti-LPS Activities” (International Journal of Molecular Sciences, 2024)", "key": {"[1]": {"system": "S. aureus", "assay": "Membrane damage, PI staining and flow cytometry", "assay_type": "cell-based, Staphylococcus aureus", "conditions": "6.25 μM peptide, 30 min", "experimental": "Propidium iodide (PI) was utilized as a marker for assessing the structural integrity of cell membranes and the occurrence of cell death. The impact of peptides on BEAS-2B cells, E. coli, and S. aureus was investigated by treating the cells with peptides followed by PI staining and flow cytometry (FACS) analysis to evaluate peptide-induced membrane damage. Table 5 presents the results of PI staining in BEAS-2B cells (1 × 10^6) following treatment with peptides at a concentration of 6.25 μM. […] FACS analysis at a peptide concentration of 6.25 μM was employed to determine the membrane damage caused by peptides in E. coli and S. aureus cells (Table 5).\nPeptide-induced membrane damage was evaluated by quantifying the influx of propidium iodide (PI). BEAS-2B cells (1 × 10^6 cells in 50 μL) were exposed to a final concentration of 6.25 μM peptide and incubated at 37 °C for 30 min, followed by PBS washing and re-suspension in PI solution (dissolved in PBS) at a final concentration of 2 μg/mL. Bacteria were cultured to mid-log phase at 37 °C, then diluted to an OD600 of 0.5 in phosphate-buffered saline (PBS). […] The bacteria were harvested and re-suspended in PI solution, with fluorescence signal analysis conducted using flow cytometry (Cytomics FC 500, Beckman Coulter, Indianapolis, IN, USA)."}, "[2]": {"system": "Staphylococcus aureus (1.8721)", "assay_type": "cell-based", "source_text": "(§1) The LL-37, SAAP-148 and its analogues peptides were synthesized according to the standard Fmoc procedure. The Fmoc-protected resin and monomers are first treated with a basic solvent (piperidine) to remove the amino protecting groups. The carboxyl group of the next amino acid is activated by an activator. The activated monomer reacts with the free amino group to form a peptide bond. These two steps are repeated in a cycle until the synthesis is complete. After synthesis, the peptide is eluted from the column and purified by reverse-phase semipreparative high-performance liquid chromatography as detailed in Table 1. The peptides were dissolved in PBS to create a 1000 μmol/L stock solution for subsequent use. The purity of the synthetic peptide exceeded 95%. Blood samples from healthy donors were obtained from the Fifth Medical Center of Chinese PLA General Hospital (Beijing, China). Human normal lung epithelial cells (BEAS-2B) and mouse mononuclear macrophages cells (RAW 264.7) were sourced from Beyotime Biotechnology (Beijing, China), along with the Enhanced Cell Counting Kit-8 (CCK-8) and nitric oxide detection kit. RPMI-1640 and DMEM were procured from Merck (Darmstadt, Germany), while FBS was obtained from ExCell Bio (Shanghai, China). LPS-B5 (from E. coli 055:B5) was procured from Invivogen (Toulouse, France). Five bacterial strains, including Escherichia coli (1.8732), Pseudomonas aeruginosa (1.2421), Klebsiella pneumonia (1.1736) as Gram-negative bacteria, and Staphylococcus aureus (1.8721) and Staphylococcus epidermidis (1.4260) as Gram-positive bacteria, were procured from the China General Microbiological Culture Collection Centre (CGMCC) (Beijing, China).\n(§2) The antibacterial activities of the peptides against […] were evaluated using a modified version of the Clinical Laboratory and Standards Institute (CLSI) broth microdilution method, as previously described. Briefly, the bacteria were cultured in liquid LB medium (comprising 10 g/L tryptone, 5 g/L yeast extract, and 10 g/L NaCl) at 37 °C until reaching mid-log phase. Subsequently, the bacterial concentration was adjusted to 1 × 10^6 colony-forming units (CFU)/mL. The peptides were then diluted serially with phosphate-buffered saline (PBS), followed by the addition of 50 μL of the diluted peptides to 50 μL of the bacterial suspension in a 96-well plate (Corning Inc., Lowell, MA, USA). After incubating at 37 °C for 18 to 20 h, the absorbance of each well was measured using a multi-well microplate reader (SpectraMax M5; Molecular Devices, Sunnyvale, CA, USA) at 600 nm."}, "[3]": {"system": "Pseudomonas aeruginosa (1.2421)", "assay_type": "cell-based", "source_text": "as §1, §2"}, "[4]": {"system": "Staphylococcus epidermidis (1.4260)", "assay_type": "cell-based", "source_text": "as §1, §2"}, "[5]": {"system": "human erythrocytes versus five bacterial strains", "assay": "Therapeutic index (MHC/GM of MIC)", "experimental": "The geometric mean of minimum inhibitory concentration (MIC) values (GM) from the five strains was calculated to provide a comprehensive assessment of antimicrobial activity, as presented in Table 4.\nThe therapeutic index (TI) is a widely utilized parameter for indicating the specificity of antimicrobial agents, which is determined by the ratio of MHC (hemolytic activity) and MIC (antimicrobial activity). Consequently, larger TI values signify greater antimicrobial specificity. The TI can be enhanced through one of three mechanisms: increasing antimicrobial activity, reducing hemolytic activity while maintaining antimicrobial activity, or a combination of both augmenting antimicrobial activity and diminishing hemolytic activity."}, "[6]": {"assay": "CD spectra, secondary structure by BeStSel", "assay_type": "physicochemical", "conditions": "30 μM SDS as printed, 100 μM peptide, 25 °C", "summary_of_the_method": "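Far-UV CD spectra (190–250 nm) of peptides at 100 μM in SDS, 0.1 cm cells, 25 °C under nitrogen. Secondary-structure content derived from spectra by BeStSel deconvolution.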"}}, "note": "Ends that are not written are not given here.", "data": [{"substance": "LKRVWKRVFKLKKRYWRQLKKPVR-NH2 [SAAP-7]", "values": [{"measurement": "percentage of PI-positive cells, S. aureus", "setting": "[1]", "value": 21.1, "unit": "%"}, {"measurement": "MIC S. aureus", "setting": "[2]", "value": 100.00, "unit": "µM"}, {"measurement": "MIC P. aeruginosa", "setting": "[3]", "value": 3.13, "unit": "µM"}, {"measurement": "MIC S. epidermidis", "setting": "[4]", "value": 12.50, "unit": "µM"}, {"measurement": "Fold (TI of analogue compared with SAAP-148)", "setting": "[5]; TI change relative to SAAP-148", "value": 55.09}, {"measurement": "TI (MHC/MIC)", "setting": "[5]; ratio of MHC to geometric mean of MIC (five strains)", "value": 6.06}, {"measurement": "Others", "setting": "[6]", "value": 3.4, "unit": "%"}, {"measurement": "Turn", "setting": "[6]", "value": 0, "unit": "%"}, {"measurement": "α-Helix", "setting": "[6]", "value": 48.3, "unit": "%"}, {"measurement": "β-Antiparallel", "setting": "[6]", "value": 48.3, "unit": "%"}, {"measurement": "β-Parallel", "setting": "[6]", "value": 0, "unit": "%"}]}]}
